Test [1] concerns the target T1, Activin receptor type-1B (Homo sapiens) (UniProt P36896).
T1 sequence (whole entry): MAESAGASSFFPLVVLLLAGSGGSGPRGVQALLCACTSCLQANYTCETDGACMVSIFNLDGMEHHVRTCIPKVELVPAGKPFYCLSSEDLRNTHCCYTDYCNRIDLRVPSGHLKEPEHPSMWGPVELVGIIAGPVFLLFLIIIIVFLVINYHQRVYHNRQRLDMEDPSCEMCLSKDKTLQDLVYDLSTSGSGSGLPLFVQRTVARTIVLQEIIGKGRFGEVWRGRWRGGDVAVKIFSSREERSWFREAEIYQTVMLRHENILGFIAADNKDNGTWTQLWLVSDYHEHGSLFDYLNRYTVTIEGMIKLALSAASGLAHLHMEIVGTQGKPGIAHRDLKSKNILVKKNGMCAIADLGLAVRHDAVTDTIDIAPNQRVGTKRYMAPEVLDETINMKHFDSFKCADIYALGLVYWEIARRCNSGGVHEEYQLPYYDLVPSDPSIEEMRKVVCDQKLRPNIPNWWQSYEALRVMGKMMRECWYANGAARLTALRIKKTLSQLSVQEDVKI
Put plainly: Selectivity interaction (Kinase panel (Z-LYTE Assay)) EUB0001632a ACVR1B. Conditions: at 10 µM.

Test [2] deals with Serine/threonine-protein kinase PAK 3 (Homo sapiens) (UniProt O75914). Put plainly: Selectivity interaction (SelectScreen profiling (Invitrogen)) EUB0000607a PAK3. Conditions: at 2 µM.
The target of test [3] is Rho-associated protein kinase 2 (Homo sapiens, UniProt O75116). Put plainly: Selectivity interaction (KinomeScan (DiscoverX)) EUB0000666a ROCK2. Conditions: at 10 µM.
In test [4] the target is Dual specificity mitogen-activated protein kinase kinase 1 (Homo sapiens, UniProt Q02750). Put plainly: Selectivity interaction (KinomeScan (DiscoverX)) EUB0000229b MAP2K1. As to conditions: at 10 µM.
For test [5], the target named is Mitogen-activated protein kinase kinase kinase kinase 1 (Homo sapiens) (UniProt Q92918). Put plainly: Selectivity interaction (ActivX KiNativ screen (kinase selectivity in THP-1 cell lysates)) EUB0000639a MAP4K1. It is filed as subcellular. As to conditions: lysate.
Test [6] concerns the target T2, Serine/threonine-protein kinase TBK1 (Homo sapiens) (UniProt Q9UHD2).
T2 sequence (whole entry): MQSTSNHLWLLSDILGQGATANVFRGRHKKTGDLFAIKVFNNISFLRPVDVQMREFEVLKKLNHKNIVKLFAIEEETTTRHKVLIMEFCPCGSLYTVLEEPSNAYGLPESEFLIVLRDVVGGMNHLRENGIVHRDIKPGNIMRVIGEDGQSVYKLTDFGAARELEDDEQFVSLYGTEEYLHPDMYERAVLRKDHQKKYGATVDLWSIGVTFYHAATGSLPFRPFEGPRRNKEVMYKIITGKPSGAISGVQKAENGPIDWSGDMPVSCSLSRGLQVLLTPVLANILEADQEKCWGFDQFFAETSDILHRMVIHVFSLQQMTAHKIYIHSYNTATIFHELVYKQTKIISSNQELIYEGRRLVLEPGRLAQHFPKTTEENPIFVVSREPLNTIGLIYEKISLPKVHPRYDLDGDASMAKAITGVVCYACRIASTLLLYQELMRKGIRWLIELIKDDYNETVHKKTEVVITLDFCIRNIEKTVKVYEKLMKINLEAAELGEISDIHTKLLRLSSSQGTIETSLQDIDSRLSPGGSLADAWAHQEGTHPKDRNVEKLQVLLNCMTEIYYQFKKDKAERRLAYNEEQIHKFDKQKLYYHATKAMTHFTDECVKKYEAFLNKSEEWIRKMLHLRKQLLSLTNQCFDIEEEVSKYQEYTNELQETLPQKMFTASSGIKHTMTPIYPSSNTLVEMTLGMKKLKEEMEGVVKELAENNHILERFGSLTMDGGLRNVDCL
Put plainly: Selectivity interaction (KinomeScan (DiscoverX)) EUB0000092b TBK1. Conditions: at 10 µM.

In test [7] the target is T3, Ephrin type-B receptor 6 (Homo sapiens) (UniProt O15197).
T3 sequence (whole entry): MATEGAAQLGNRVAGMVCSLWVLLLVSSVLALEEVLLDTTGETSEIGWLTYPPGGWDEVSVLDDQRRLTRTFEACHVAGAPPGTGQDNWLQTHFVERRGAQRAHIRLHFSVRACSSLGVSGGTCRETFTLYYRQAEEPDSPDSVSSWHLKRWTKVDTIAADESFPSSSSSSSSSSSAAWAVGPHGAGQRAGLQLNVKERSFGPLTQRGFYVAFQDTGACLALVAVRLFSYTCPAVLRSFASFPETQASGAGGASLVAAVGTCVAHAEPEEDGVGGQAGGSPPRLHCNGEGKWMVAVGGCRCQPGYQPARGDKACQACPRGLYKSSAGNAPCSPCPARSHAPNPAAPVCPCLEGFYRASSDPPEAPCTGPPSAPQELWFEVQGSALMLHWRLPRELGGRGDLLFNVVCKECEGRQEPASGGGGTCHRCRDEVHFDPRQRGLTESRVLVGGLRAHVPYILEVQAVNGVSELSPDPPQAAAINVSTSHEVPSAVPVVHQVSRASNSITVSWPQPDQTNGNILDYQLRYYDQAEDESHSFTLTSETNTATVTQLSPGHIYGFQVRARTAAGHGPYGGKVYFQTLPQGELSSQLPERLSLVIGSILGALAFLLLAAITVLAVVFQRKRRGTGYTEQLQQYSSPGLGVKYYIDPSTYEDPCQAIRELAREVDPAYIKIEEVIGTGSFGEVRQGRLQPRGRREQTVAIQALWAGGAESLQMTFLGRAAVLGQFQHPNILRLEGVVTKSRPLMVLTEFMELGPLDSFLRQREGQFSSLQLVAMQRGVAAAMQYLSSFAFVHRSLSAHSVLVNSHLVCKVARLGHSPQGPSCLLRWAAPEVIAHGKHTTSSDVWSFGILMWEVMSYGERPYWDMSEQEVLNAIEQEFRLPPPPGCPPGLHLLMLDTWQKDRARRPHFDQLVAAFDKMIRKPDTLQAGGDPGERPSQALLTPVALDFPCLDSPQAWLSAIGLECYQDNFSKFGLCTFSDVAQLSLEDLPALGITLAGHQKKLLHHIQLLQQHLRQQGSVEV
Description: Selectivity interaction (KinomeScan (DiscoverX)) EUB0000595a EPHB6. Conditions: at 10 µM.

Structures are written as SMILES.

Sequence of Mitogen-activated protein kinase kinase kinase kinase 1 (Homo sapiens) (Q92918 whole entry, looked up): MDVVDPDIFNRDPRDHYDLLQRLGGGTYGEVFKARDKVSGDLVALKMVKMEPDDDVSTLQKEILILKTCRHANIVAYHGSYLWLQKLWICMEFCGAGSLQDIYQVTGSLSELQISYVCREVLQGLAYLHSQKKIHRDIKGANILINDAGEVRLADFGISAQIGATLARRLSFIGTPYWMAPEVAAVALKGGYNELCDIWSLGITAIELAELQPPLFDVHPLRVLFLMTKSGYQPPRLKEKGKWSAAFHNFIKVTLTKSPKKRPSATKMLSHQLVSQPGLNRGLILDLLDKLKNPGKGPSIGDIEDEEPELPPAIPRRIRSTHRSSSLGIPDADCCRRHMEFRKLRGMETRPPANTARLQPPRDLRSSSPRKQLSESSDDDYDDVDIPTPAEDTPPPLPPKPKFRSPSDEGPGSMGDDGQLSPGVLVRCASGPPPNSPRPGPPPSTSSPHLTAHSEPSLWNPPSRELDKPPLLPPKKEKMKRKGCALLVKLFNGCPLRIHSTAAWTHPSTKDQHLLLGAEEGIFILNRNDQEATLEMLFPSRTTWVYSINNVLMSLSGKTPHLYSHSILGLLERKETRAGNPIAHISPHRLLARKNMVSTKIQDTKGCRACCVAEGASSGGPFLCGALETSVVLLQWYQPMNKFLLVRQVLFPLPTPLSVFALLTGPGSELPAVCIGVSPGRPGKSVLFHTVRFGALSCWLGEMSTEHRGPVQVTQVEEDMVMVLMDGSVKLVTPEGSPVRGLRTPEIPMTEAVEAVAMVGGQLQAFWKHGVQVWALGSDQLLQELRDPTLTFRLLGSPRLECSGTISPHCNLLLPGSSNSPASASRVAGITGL
Sequence of Dual specificity mitogen-activated protein kinase kinase 1 (Q02750 whole entry): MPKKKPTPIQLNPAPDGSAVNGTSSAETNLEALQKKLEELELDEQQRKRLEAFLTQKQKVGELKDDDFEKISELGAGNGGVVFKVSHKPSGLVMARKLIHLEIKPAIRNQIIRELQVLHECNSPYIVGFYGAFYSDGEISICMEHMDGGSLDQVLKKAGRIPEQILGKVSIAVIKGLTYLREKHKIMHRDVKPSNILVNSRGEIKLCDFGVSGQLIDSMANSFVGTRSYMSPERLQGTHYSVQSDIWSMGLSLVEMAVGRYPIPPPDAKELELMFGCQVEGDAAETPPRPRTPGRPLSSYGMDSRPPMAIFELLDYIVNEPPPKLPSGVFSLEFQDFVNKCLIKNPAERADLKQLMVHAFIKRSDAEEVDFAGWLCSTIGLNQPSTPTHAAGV
Sequence of Rho-associated protein kinase 2 (O75116 whole entry, looked up): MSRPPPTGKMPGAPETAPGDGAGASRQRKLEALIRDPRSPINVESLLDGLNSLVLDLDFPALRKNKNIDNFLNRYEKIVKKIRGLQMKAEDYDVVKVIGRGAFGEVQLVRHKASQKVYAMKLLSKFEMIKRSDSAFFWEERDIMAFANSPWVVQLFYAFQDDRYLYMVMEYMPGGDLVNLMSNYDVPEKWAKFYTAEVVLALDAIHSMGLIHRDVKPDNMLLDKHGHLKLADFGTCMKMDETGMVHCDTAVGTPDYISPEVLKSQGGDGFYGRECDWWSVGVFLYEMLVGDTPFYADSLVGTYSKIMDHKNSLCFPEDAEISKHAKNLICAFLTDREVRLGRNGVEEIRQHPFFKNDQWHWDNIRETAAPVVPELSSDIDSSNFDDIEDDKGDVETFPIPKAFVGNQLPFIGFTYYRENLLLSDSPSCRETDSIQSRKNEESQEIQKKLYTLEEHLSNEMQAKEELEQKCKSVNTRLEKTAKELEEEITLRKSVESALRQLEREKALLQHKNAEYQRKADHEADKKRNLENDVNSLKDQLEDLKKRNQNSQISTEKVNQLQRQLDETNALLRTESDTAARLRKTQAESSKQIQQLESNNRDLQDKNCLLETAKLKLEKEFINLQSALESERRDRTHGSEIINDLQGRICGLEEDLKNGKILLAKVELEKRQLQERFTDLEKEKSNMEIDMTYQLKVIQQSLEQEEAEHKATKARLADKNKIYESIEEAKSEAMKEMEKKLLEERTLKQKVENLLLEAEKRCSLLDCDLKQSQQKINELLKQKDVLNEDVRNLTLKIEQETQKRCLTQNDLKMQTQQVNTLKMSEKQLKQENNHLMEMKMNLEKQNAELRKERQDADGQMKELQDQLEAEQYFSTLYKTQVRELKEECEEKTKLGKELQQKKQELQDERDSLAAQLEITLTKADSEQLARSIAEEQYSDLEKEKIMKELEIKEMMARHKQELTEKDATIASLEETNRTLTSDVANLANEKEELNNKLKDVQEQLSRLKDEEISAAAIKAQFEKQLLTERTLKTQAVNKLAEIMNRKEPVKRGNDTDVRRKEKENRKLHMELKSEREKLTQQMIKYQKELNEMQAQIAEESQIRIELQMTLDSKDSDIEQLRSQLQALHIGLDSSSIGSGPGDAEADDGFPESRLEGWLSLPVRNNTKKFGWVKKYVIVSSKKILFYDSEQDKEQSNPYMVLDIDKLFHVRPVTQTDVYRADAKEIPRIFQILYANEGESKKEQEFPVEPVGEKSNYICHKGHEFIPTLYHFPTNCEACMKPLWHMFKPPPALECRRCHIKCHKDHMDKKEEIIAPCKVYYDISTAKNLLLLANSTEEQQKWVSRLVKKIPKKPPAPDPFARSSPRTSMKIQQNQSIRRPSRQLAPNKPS
Sequence of Serine/threonine-protein kinase PAK 3 (Homo sapiens) (O75914 whole entry, looked up): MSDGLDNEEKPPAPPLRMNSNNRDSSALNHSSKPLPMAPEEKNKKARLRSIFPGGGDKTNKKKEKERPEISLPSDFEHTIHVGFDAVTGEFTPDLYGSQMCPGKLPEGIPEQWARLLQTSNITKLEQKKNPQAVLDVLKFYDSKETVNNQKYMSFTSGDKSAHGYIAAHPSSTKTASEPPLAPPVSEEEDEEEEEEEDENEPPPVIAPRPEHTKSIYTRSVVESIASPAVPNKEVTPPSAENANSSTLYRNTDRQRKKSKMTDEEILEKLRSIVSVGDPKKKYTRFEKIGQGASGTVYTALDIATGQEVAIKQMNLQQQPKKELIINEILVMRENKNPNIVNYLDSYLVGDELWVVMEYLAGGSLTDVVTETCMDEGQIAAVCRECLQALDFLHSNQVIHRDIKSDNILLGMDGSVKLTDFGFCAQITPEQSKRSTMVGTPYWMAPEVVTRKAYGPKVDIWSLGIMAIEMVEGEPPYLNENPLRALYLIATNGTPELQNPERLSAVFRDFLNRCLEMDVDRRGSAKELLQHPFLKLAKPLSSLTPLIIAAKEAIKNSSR

In test [1], `Cn1cc(-n2cnc3c(NCc4nc5cc(Cl)c(Cl)cc5[nH]4)nc(N4CCOCC4)nc32)cn1` came in with a % of control of 5.65%.

Consider `CNC(=O)Nc1ccc(-c2nc(N3CC4CCC(C3)O4)c3cnn(C4CCC5(CC4)OCCO5)c3n2)cc1`, for which the % of inhibition in test [2] came to 1%.

`O=C(NOC[C@H](O)CO)c1ccc(F)c(F)c1Nc1ccc(I)cc1F` had a % of control in test [3] of 100%.

`COc1cc(N(C)c2ccnc3ccc(C(F)(F)F)cc23)cc(OC)c1OC`: the % binding in test [4] is 68%.

In the case of `CC[C@@H]1[C@H](F)C(=O)N[C@@H]1COc1nccc2cc(C(N)=O)c(OC)cc12` [ZIMLOVISERTIB], the % of inhibition is 9.7% in test [5] (at 0.01 µM); -10.3% in test [5] (at 0.04 µM); -26.5% in test [5] (at 0.2 µM); -6.5% in test [5] (at 1 µM); -18.1% in test [5] (at 5 µM).

For `CCC(=O)N1CCN(c2ccc(-n3c(=O)ccc4cnc5ccc(-c6cnc7ccccc7c6)cc5c43)cc2C(F)(F)F)CC1`, the % of control in test [6] worked out at 93%.

As for `COCC(=O)NC/C=C/c1ccc2ncnc(Nc3ccc(Oc4ccc(C)nc4)c(C)c3)c2c1` [CP-724714], the % of control in test [7] worked out at 74%.
